The text below walks through data of publication PMC11144275 (The Lancet. Infectious diseases, 2019).

The structures appear in SMILES notation. Structures can show the parent of a compound that is named as a salt.

The test system of data set [1] is EBOV-Makona. In words: microbe, parasite or virus in culture. The format is cell-based, Ebola virus.
For data set [2], the system named is EBOV-Ituri. In words: microbe, parasite or virus in culture. The format is cell-based, Ebola virus.
Data set [3] concerns Huh-7 cells.

Turning to `Nc1ccn([C@@H]2O[C@H](CO)[C@@H](O)[C@H]2F)c(=O)n1` [2′-deoxy-2′-fluorocytidine], the “EBOV-Makona Selectivity index” value in data set [1] is greater than 16. Moreover, in data set [2], the “EBOV-Ituri Selectivity index” value is reported as greater than 14.
With `NCC(=O)Nc1ccc(-n2nc(C(F)(F)F)cc2-c2ccc3c(ccc4ccccc43)c2)cc1` [AR-12], the CC50 in data set [3] is recorded as 3·67 (0·14) μM.
Still for that read-out and setting: the value for `CCN(CC)CCOc1ccc(C(=C(Cl)c2ccccc2)c2ccccc2)cc1` [Clomifene citrate] was 8·43 (1·08) μM.
For the compound `COc1c(C)c2c(c(O)c1C/C=C(\C)CCC(=O)OCCN1CCOCC1)C(=O)OC2` [Mycophenolate mofetil], in data set [1], the “EBOV-Makona Selectivity index” value is on record as 97. Besides, the “EBOV-Ituri Selectivity index” value in data set [2] is reported as 89. For the same compound, the CC50 in data set [3] was 14·2 (4·3) μM.
With `CCC(CC)COC(=O)[C@H](C)N[P@](=O)(OC[C@H]1O[C@@](C#N)(c2ccc3c(N)ncnn23)[C@H](O)[C@@H]1O)Oc1ccccc1` [Remdesivir], the EC50 (commonly the concentration that produces a half-maximal response) worked out at 0.012 µM in data set [1] (Zaire ebolavirus, Huh-7, read-out: EC50 EBOV-Makona) and 0.013 µM in data set [2] (Zaire ebolavirus, Huh-7, read-out: EC50 EBOV-Ituri). In addition, the CC50 in data set [3] is 3·63 (2·88) μM.
As for `NC(=O)c1ncn([C@@H]2O[C@H](CO)[C@@H](O)[C@H]2O)n1` [Ribavirin], the “EBOV-Makona Selectivity index” value in data set [1] is recorded as greater than 4. Also, in data set [2], the “EBOV-Ituri Selectivity index” value was greater than 3.
With `CC/C(=C(\c1ccccc1)c1ccc(OCCN(C)C)cc1)c1ccccc1` [Tamoxifen], the CC50 in data set [3] is 16·29 (12·05) μM.
For `CN(C)CCOc1ccc(/C(=C(/CCCl)c2ccccc2)c2ccccc2)cc1` [Toremifene citrate], the “EBOV-Makona Selectivity index” value in data set [1] is listed as greater than 250. In addition, in data set [2], the “EBOV-Ituri Selectivity index” value is greater than 625.
